The subject of series [1] is Smn protein in SMA patient fibroblast cells (GM03813). Kind of series: Smn protein assay in cultured cells (SMN HTRF). Format: cell-based, human. To be noted: SMA patient fibroblast cells, 48 hours; for EC1.5x for Smn protein expression: 7-point concentration curve, SMN HTRF, concentration producing 1.5 times Smn protein vs DMSO vehicle control; for maximum fold (Fold) increase of Smn protein: 7-point concentration data, fold relative to vehicle control. The method, boiled down:
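Smn protein abundance in treated SMA fibroblasts was measured by HTRF after 48 h compound exposure. The reported EC1.5× is the concentration producing 1.5 times vehicle Smn levels.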
Background: TR-FRET usually uses a lanthanide donor and a delayed reading to cut background.

For series [2], the system named is SMN2 minigene mRNA (SMN2-A minigene) in HEK293H cells. As to the kind of experiment: SMN2 minigene mRNA splicing RT-qPCR assay in cultured cells. To be noted: Homo sapiens, HEK293-H; concentration increasing full length SMN2 mRNA 1.5-fold relative to vehicle-treated cells; HEK293H cells with SMN2-A minigene, 24 hours, 7-point concentration data; read-out: EC1.5x for production of full length SMN2 mRNA. The format is cell-based, human. An outline of the steps:
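Potency reflects the concentration that lifts full-length SMN2 minigene mRNA 1.5-fold above vehicle in stably transfected HEK293H cells after 24 h of treatment. Transcript abundance came from RT-qPCR as (1+E)^−Ct, normalized to GAPDH; endogenous SMN1/SMN2 are not detected.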

This is an account of results in patent publication US11753407B2, “Compounds for treating spinal muscular atrophy” (PTC Therapeutics, Inc., priority 2012, dated 2023).

Structures are written as SMILES.

For orientation: melting point means the temperature, or range, at which the solid turns liquid.

`COc1ccc(-c2cc(=O)n3cc(N4CCC(CN(C)C)CC4)ccc3n2)cc1OC` [Compound 573, 2-(3,4-dimethoxyphenyl)-7-{4-[(dimethylamino)methyl]piperidin-1-yl}-4H-pyrido[1,2-a]pyrimidin-4-one]: the melting point lay within 182 to 184 °C. For the same molecule, in series [1], the “EC1.5x for Smn protein expression” value is “** (an EC1.5× between >1 μM and ≤3 μM is indicated by two stars (**))”; the “maximum fold (Fold) increase of Smn protein” value (shortened to “maximum fold (Fold) increase”) is “**** (a fold increase between >1.5 and ≤1.65 is indicated by four stars (****))”. Moreover, the EC (1.5-fold increase) in series [2] fell in the range of 0.3 to 1 µM.

In turn, `COc1ccc(-c2cc(=O)n3cc(N4CCC(CN5CCCC5)CC4)ccc3n2)cc1OC` [Compound 574, 2-(3,4-dimethoxyphenyl)-7-[4-(pyrrolidin-1-ylmethyl)piperidin-1-yl]-4H-pyrido[1,2-a]pyrimidin-4-one] yielded a melting point of 194 to 196 °C. In addition, the “maximum fold (Fold) increase” value in series [1] was “** (a fold increase between >1.2 and ≤1.35 is indicated by two stars (**))”. Also, the EC (1.5-fold increase) in series [2] was 0.3 to 1 µM.

The molecule `COc1ccc(-c2cc(=O)n3cc(N4CCC(CN5CCCCC5)CC4)ccc3n2)cc1OC` [Compound 575, 2-(3,4-dimethoxyphenyl)-7-[4-(piperidin-1-ylmethyl)piperidin-1-yl]-4H-pyrido[1,2-a]pyrimidin-4-one] had a melting point of 184 to 186 °C. In series [1], the “maximum fold (Fold) increase” value was “*** (a fold increase between >1.35 and ≤1.5 is indicated by three stars (***))”. Also, in series [2], the EC (1.5-fold increase) is 0.3 to 1 µM.

The molecule `Cc1cn2cc(-c3cc(=O)n4cc(C5CCN(CCO)CC5)ccc4n3)ccc2n1` [Compound 576, 7-[1-(2-hydroxyethyl)piperidin-4-yl]-2-(2-methylimidazo[1,2-a]pyridin-6-yl)-4H-pyrido[1,2-a]pyrimidin-4-one] returned a melting point of 200 to 202 °C. In series [1], the “EC1.5x for Smn protein expression” value was “**** (an EC1.5x≤0.3 μM is indicated by four stars (****))” and the “maximum fold (Fold) increase” value is reported as “***** (a fold increase >1.65 is indicated by five stars (*****))”. Moreover, the EC (1.5-fold increase) in series [2] was < 0.1 µM.

As to `Cc1cn2cc(-c3cc(=O)n4cc(C5=CCN(CCO)CC5)ccc4n3)ccc2n1` [Compound 577, 7-[1-(2-hydroxyethyl)-1,2,3,6-tetrahydropyridin-4-yl]-2-(2-methylimidazo[1,2-a]pyridin-6-yl)-4H-pyrido[1,2-a]pyrimidin-4-one], the melting point was in the range of 248 to 250 °C. For the same molecule, in series [1], the “EC1.5x for Smn protein expression” value is “**** (an EC1.5x≤0.3 μM is indicated by four stars (****))” and the “maximum fold (Fold) increase” value is given as “***** (a fold increase >1.65 is indicated by five stars (*****))”. Further, the EC (1.5-fold increase) in series [2] was < 0.1 µM.

`CN1CCC(c2ccc3nc(-c4ccc5nn(C)cc5c4)cc(=O)n3c2)CC1` [Compound 578, 2-(2-methyl-2H-indazol-5-yl)-7-(1-methylpiperidin-4-yl)-4H-pyrido[1,2-a]pyrimidin-4-one] gave a melting point of 256 to 258 °C. In series [1], the “EC1.5x for Smn protein expression” value is on record as “**** (an EC1.5x≤0.3 μM is indicated by four stars (****))” and the “maximum fold (Fold) increase” value is “***** (a fold increase >1.65 is indicated by five stars (*****))”. For the same molecule, the EC (1.5-fold increase) in series [2] is < 0.1 µM.

`Cc1cn2cc(-c3cc(=O)n4cc(C5CCN(C)CC5)ncc4n3)ccc2n1` [Compound 579, 2-(2-methylimidazo[1,2-a]pyridin-6-yl)-7-(1-methylpiperidin-4-yl)-4H-pyrazino[1,2-a]pyrimidin-4-one]: the melting point lay within 277 to 280 °C. Besides, in series [1], the “EC1.5x for Smn protein expression” value was “*** (an EC1.5× between >0.3 μM and ≤1 μM is indicated by three stars (***))”; the “maximum fold (Fold) increase” value is on record as “***** (a fold increase >1.65 is indicated by five stars (*****))”. Also, in series [2], the EC (1.5-fold increase) was in the range of 0.1 to 0.3 µM.

As for `CCN1CCC(c2cn3c(=O)cc(-c4ccc5nc(C)cn5c4)nc3cn2)CC1` [Compound 580, 7-(1-ethylpiperidin-4-yl)-2-(2-methylimidazo[1,2-a]pyridin-6-yl)-4H-pyrazino[1,2-a]pyrimidin-4-one], the melting point was in the range of 255 to 258 °C. Besides, in series [1], the “EC1.5x for Smn protein expression” value was “*** (an EC1.5× between >0.3 μM and ≤1 μM is indicated by three stars (***))”; the “maximum fold (Fold) increase” value is recorded as “***** (a fold increase >1.65 is indicated by five stars (*****))”. Besides, in series [2], the EC (1.5-fold increase) was < 0.1 µM.

`Cc1cn2cc(-c3cc(=O)n4cc(C5CCN(CCO)CC5)ncc4n3)ccc2n1` [Compound 581, 7-[1-(2-hydroxyethyl)piperidin-4-yl]-2-(2-methylimidazo[1,2-a]pyridin-6-yl)-4H-pyrazino[1,2-a]pyrimidin-4-one]: the melting point lay in the range of 250 to 252 °C. Besides, in series [1], the “EC1.5x for Smn protein expression” value is “*** (an EC1.5× between >0.3 μM and ≤1 μM is indicated by three stars (***))”; the “maximum fold (Fold) increase” value is “***** (a fold increase >1.65 is indicated by five stars (*****))”. The EC (1.5-fold increase) in series [2] fell in the range of 0.1 to 0.3 µM.

Consider `Cc1cn2nc(-c3cc(=O)n4cc(N5CCC(N(C)CCO)CC5)cc(C)c4n3)cc2c(C)n1` [Compound 582, 2-(4,6-dimethylpyrazolo[1,5-a]pyrazin-2-yl)-7-{4-[(2-hydroxyethyl)(methyl)amino]piperidin-1-yl}-9-methyl-4H-pyrido[1,2-a]pyrimidin-4-one], for which the melting point was 250 to 259 °C. Also, in series [1], the “EC1.5x for Smn protein expression” value is “**** (an EC1.5x≤0.3 μM is indicated by four stars (****))” and the “maximum fold (Fold) increase” value is “***** (a fold increase >1.65 is indicated by five stars (*****))”. Moreover, in series [2], the EC (1.5-fold increase) was < 0.1 µM.

As to `CCCNC1CCN(c2cc(C)c3nc(-c4cc5c(C)nc(C)cn5n4)cc(=O)n3c2)CC1` [Compound 583, 2-(4,6-dimethylpyrazolo[1,5-a]pyrazin-2-yl)-9-methyl-7-[4-(propylamino)piperidin-1-yl]-4H-pyrido[1,2-a]pyrimidin-4-one], the melting point was 231 to 241 °C. Moreover, in series [1], the “EC1.5x for Smn protein expression” value is on record as “**** (an EC1.5x≤0.3 μM is indicated by four stars (****))” and the “maximum fold (Fold) increase” value is given as “***** (a fold increase >1.65 is indicated by five stars (*****))”. Also, the EC (1.5-fold increase) in series [2] was < 0.1 µM.

`Cc1cn2nc(-c3cc(=O)n4cc(N5CCC(C)(N)CC5)ccc4n3)cc2c(C)n1` [Compound 584, 7-(4-amino-4-methylpiperidin-1-yl)-2-(4,6-dimethylpyrazolo[1,5-a]pyrazin-2-yl)-4H-pyrido[1,2-a]pyrimidin-4-one] had a melting point of 200 to 203 °C. For the same molecule, in series [1], the “EC1.5x for Smn protein expression” value was “**** (an EC1.5x≤0.3 μM is indicated by four stars (****))” and the “maximum fold (Fold) increase” value was “***** (a fold increase >1.65 is indicated by five stars (*****))”. In series [2], the EC (1.5-fold increase) was < 0.1 µM.

The molecule `Cn1cc2cc(-c3cc(=O)n4cc(N5CCNCC5)ncc4n3)ccc2n1` [Compound 586, 2-(2-methyl-2H-indazol-5-yl)-7-(piperazin-1-yl)-4H-pyrazino[1,2-a]pyrimidin-4-one] came in with a melting point of 160 to 162 °C. In series [1], the “EC1.5x for Smn protein expression” value is reported as “**** (an EC1.5x≤0.3 μM is indicated by four stars (****))” and the “maximum fold (Fold) increase” value is “***** (a fold increase >1.65 is indicated by five stars (*****))”. Further, in series [2], the EC (1.5-fold increase) lay within 0.1 to 0.3 µM.

`CCN1CCN(c2cn3c(=O)cc(-c4ccc5nn(C)cc5c4)nc3cn2)CC1` [Compound 590, 7-(4-ethylpiperazin-1-yl)-2-(2-methyl-2H-indazol-5-yl)-4H-pyrazino[1,2-a]pyrimidin-4-one] returned a melting point of 214 to 216 °C. In series [1], the “EC1.5x for Smn protein expression” value was “** (an EC1.5× between >1 μM and ≤3 μM is indicated by two stars (**))”; the “maximum fold (Fold) increase” value was “**** (a fold increase between >1.5 and ≤1.65 is indicated by four stars (****))”. The EC (1.5-fold increase) in series [2] was in the range of 0.3 to 1 µM.

`Cn1cc2cc(-c3cc(=O)n4cc(N5CCN(CCO)CC5)ncc4n3)ccc2n1` [Compound 591, 7-[4-(2-hydroxyethyl)piperazin-1-yl]-2-(2-methyl-2H-indazol-5-yl)-4H-pyrazino[1,2-a]pyrimidin-4-one] returned a melting point of 200 to 202 °C. Further, in series [1], the “EC1.5x for Smn protein expression” value is “** (an EC1.5× between >1 μM and ≤3 μM is indicated by two stars (**))”; the “maximum fold (Fold) increase” value is “**** (a fold increase between >1.5 and ≤1.65 is indicated by four stars (****))”. Besides, the EC (1.5-fold increase) in series [2] was 0.3 to 1 µM.

As to `Cc1cn2cc(-c3cc(=O)n4cc(C5CCN(C)CC5)ncc4n3)cc(C)c2n1` [Compound 592, 2-(2,8-dimethylimidazo[1,2-a]pyridin-6-yl)-7-(1-methylpiperidin-4-yl)-4H-pyrazino[1,2-a]pyrimidin-4-one], the melting point is 249 to 251 °C. Moreover, in series [1], the “EC1.5x for Smn protein expression” value was “*** (an EC1.5× between >0.3 μM and ≤1 μM is indicated by three stars (***))”; the “maximum fold (Fold) increase” value is “***** (a fold increase >1.65 is indicated by five stars (*****))”. For the same molecule, the EC (1.5-fold increase) in series [2] was 0.1 to 0.3 µM.
